From PubChem BioAssay AID1919009 (Molecular Pharmacology Branch, DTP, NCI, 2023)

Tested on: K24384-001-R-PDC complex spheroid growth
Assay: Anticancer human tumor K24384-001-R-PDC patient-derived pancreatic adenocarcinoma cell line growth inhibition [AhR]
Conditions: for IC50: curve of first compound; for viability, T/C: stronger effect = lower value
How it was run: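 Agents were dosed in half-log steps down from roughly clinical Cmax, or from 10 microM where Cmax was unknown, alone and with AhR antagonists. Read-out: percent test/control growth of tumor spheroids containing HUVEC and MSC stromal cells.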

[1] = second compound 0.1 µM, first compound 0.0316 µM
[2] = second compound 0.1 µM, first compound 0.1 µM
[3] = second compound 0.1 µM, first compound 0.316 µM
[4] = second compound 0.1 µM, first compound 1 µM
[5] = second compound 0.1 µM, first compound 3.16 µM
[6] = second compound 0.1 µM, first compound 10 µM
[7] = second compound 0.316 µM, first compound 0.0316 µM
[8] = second compound 0.316 µM, first compound 0.1 µM
[9] = second compound 0.316 µM, first compound 0.316 µM
[10] = second compound 0.316 µM, first compound 1 µM
[11] = second compound 0.316 µM, first compound 3.16 µM
[12] = second compound 0.316 µM, first compound 10 µM
[13] = second compound 1 µM, first compound 0.0316 µM
[14] = second compound 1 µM, first compound 0.1 µM
[15] = second compound 1 µM, first compound 0.316 µM
[16] = second compound 1 µM, first compound 1 µM
[17] = second compound 1 µM, first compound 3.16 µM
[18] = second compound 1 µM, first compound 10 µM
[19] = second compound 3.16 µM, first compound 0.0316 µM
[20] = second compound 3.16 µM, first compound 0.1 µM
[21] = second compound 3.16 µM, first compound 0.316 µM
[22] = second compound 3.16 µM, first compound 1 µM
[23] = second compound 3.16 µM, first compound 3.16 µM
[24] = second compound 3.16 µM, first compound 10 µM
[25] = second compound 10 µM, first compound 0.0316 µM
[26] = second compound 10 µM, first compound 0.1 µM
[27] = second compound 10 µM, first compound 0.316 µM
[28] = second compound 10 µM, first compound 1 µM
[29] = second compound 10 µM, first compound 3.16 µM
[30] = second compound 10 µM, first compound 10 µM
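For viability, T/C in this document: percent of DMSO vehicle-treated spheroid viability set as 100%.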

SMILES | IC50 (second compound 0.1 µM) | IC50 (second compound 0.316 µM) | IC50 (second compound 1 µM) | IC50 (second compound 3.16 µM) | IC50 (second compound 10 µM) | viability, T/C [1] | viability, T/C [2] | viability, T/C [3] | viability, T/C [4] | viability, T/C [5] | viability, T/C [6] | viability, T/C [7] | viability, T/C [8] | viability, T/C [9] | viability, T/C [10] | viability, T/C [11] | viability, T/C [12] | viability, T/C [13] | viability, T/C [14] | viability, T/C [15] | other results
O=C(C=Cc1cccc(S(=O)(=O)Nc2ccccc2)c1)NO + Cc1ccccc1N=Nc1ccc(NC(=O)c2ccnn2C)c(C)c1 | 2350 nM | 2440 nM | 2260 nM | 2270 nM | 2560 nM | 137% | 128% | 126% | 92.2% | 35.2% | 6.57% | 135% | 144% | 121% | 107% | 32.6% | 6.91% | 136% | 135% | 126% | viability, T/C [16]: 87%; viability, T/C [17]: 35.1%; viability, T/C [18]: 6.47%; viability, T/C [19]: 102%; viability, T/C [20]: 127%; viability, T/C [21]: 123%; viability, T/C [22]: 86.5%; viability, T/C [23]: 35.9%; viability, T/C [24]: 5.9%; viability, T/C [25]: 128%; viability, T/C [26]: 128%; viability, T/C [27]: 115%; viability, T/C [28]: 89%; viability, T/C [29]: 41.1%; viability, T/C [30]: 7.02%
O=C(c1cc(Cc2n[nH]c(=O)c3ccccc23)ccc1F)N1CCN(C(=O)C2CC2)CC1 + Cc1ccccc1N=Nc1ccc(NC(=O)c2ccnn2C)c(C)c1 | > 10000 nM | > 10000 nM | > 10000 nM | > 10000 nM | > 10000 nM | 86.1% | 94.5% | 99.4% | 83.3% | 75.8% | 79.2% | 99.9% | 97.2% | 79.4% | 86.2% | 85.8% | 58% | 89.9% | 109% | 77.4% | viability, T/C [16]: 81.1%; viability, T/C [17]: 66.2%; viability, T/C [18]: 63.2%; viability, T/C [19]: 75.9%; viability, T/C [20]: 80.6%; viability, T/C [21]: 83.2%; viability, T/C [22]: 72.4%; viability, T/C [23]: 60.3%; viability, T/C [24]: 51.6%; viability, T/C [25]: 101%; viability, T/C [26]: 84.1%; viability, T/C [27]: 95.1%; viability, T/C [28]: 72.9%; viability, T/C [29]: 65.2%; viability, T/C [30]: 65.8%
